Reference: publication PMC11362066, “Fecal elimination of fluralaner in different carnivore species after oral administration” (Frontiers in Veterinary Science, 2024)
Like-named read-outs stand apart in the source and are kept apart here.

Assays:
[1] = set-up: method as in PMID 33480547; conditions: black bears, orally at 25 mg.kg^−1; cited from earlier work
[2] = set-up: method as in PMID 33407820; conditions: wombats, pour on, doses of 25 or 85 mg.kg^−1; cited from earlier work
[3] = cited from earlier work
[4] = set-up: method as in ref 27 = [27]; 27. VSDB Veterinary substances DataBase consulted on June 1st, ( 2022 ) Available at: http://sitem.herts.ac.uk/aeru/vsdb/index.htm; conditions: VSDB; cited from earlier work
[5] = set-up: method as in PMID 36265636; conditions: treated dogs; cited from earlier work
[6] = set-up: method as in PMID 33733534; conditions: cited from earlier work
[7] = Fecal elimination of fluralaner after oral administration, European otter; type: in vivo, Lutra lutra; conditions: European otter n = 1
Protocol: (§1) Based on the species present at the Paris Zoo, the animals selected to be part of the study are described in Table 1.
(§2) Each individual received 1–3 tablets of fluralaner (Bravecto®, formulations from 112.5 mg to 1,400 mg per tablet), based on the dose determined (Table 2) and the actual BW of the animal on day 0 (D0). Tablets were administered with the food. Tablets were not divided, according to the summary of product characteristics and the dose administered was adjusted as closely as possible to the theoretical dose calculated. The recommended bracket doses (25–56 mg/kg in a 20-kg dog) were used as a guideline (adjusted to the body weight of the animals) to ensure that the actual dose administered would remain in the acceptable margin. For instance, for the Iberian Wolf: using the dose range 25–56 mg/kg gave a D-reference of [500–1,120] mg, thus c = D-ref/P-ref = [0.76–1.69], i.e., D-target = [763–1,698] mg, resulting in a reference range of [21.9–48.6] mg.kg^−1. The actual doses administered were between 28 and 30 mg.kg^−1. This was checked for all species.
(§3) Feces were sampled on the floor, in priority on concrete ground in indoor facilities when animals were isolated. Fecal sampling was performed by keepers with gloves, transferred to sterile vials, then saved at −80°C until transfer to the lab.
(§4) For feces analysis, well-homogenized samples were weighed and dried at 40°C overnight to eliminate water. 200 mg of the dried sample were weighed, 80 μL of IS solution (0.5 μg/mL solution), 0.52 mL of water, 200 mg QuEChERS salts and 1 mL of acetonitrile were added in a 5 mL plastic centrifuge tube. The sample was then mixed well by vortexing for 2 min and then centrifuged at 12,000 rpm for 5 min.
(§5) The upper clear layer solutions were transferred to auto-sampler vials and placed in the auto-sampler at 10°C for LC–MS/MS analysis. All results are reported in μg.kg^−1 dry weight (dw).
(§6) All pharmacokinetic data were computed using a non-linear model and “PK solver” in Microsoft-excel®. This approach has been used by Kilp et al. ([21]) and considered satisfactory by comparison with a standard PK software such as WinNonLIn®.
(§7) Only Lion and Mountain lion data (3 individuals+negative control for each species) are presented in Figure 2 as mean ± SD of the fecal concentration of fluralaner vs. time post administration. When data were LOD < Data<LOQ, an average value of 4 has been used (for graphical and PK analysis purposes). When concentrations were < LOD, ½ LOD value was used for the same purposes.

dog and cat fleas = conditions: cited from earlier work
[8] = Fecal elimination of fluralaner after oral administration, Lion; type: in vivo, Panthera leo
Protocol: as §1, §2, §3, §4, §5, §6, §7

[9] = fecal elimination, oral 36.8 mg.kg^−1
[10] = fecal elimination, Lion n = 3, mean ± SD, oral 16.0–24.1 mg.kg^−1
[11] = feces, Lion n = 3, mean ± SD, oral 16.0–24.1 mg.kg^−1

For `Cc1cc(C2=NOC(c3cc(Cl)cc(Cl)c3)(C(F)(F)F)C2)ccc1C(=O)NCC(=O)NCC(F)(F)F` (stereo not shown) [fluralaner, Fluralaner], the Half-life [1] is given as 118 h, the Safety [2] is given as “safe” and the “Effect of food on bioavailability” value ([3]; dogs fed prior to the administration of the drug) is given as “doubled”. For the same compound, the Half-life ([3]; dogs, oral administration) was 264 to 312 h, the “Bioavailability, topical administration” value ([3]; dogs, topical) was 22–25% and the Hydrolysis [4] was “not degraded by hydrolysis”. For the same compound, the Lipophilicity [4] was “lipophilic”, the “Measured values in urine samples” value [5] was 1 µg/L and the Protein-bound [6] was greater than 99%. The MRT [7, 9] was 384 h, the t1/2 [7, 9] was 48 h and the Cmax ([7]; feces, Bravecto tablet oral with food, 36.8 mg.kg^−1, rough estimate) was 2,137 μg.kg-^1 dry weight. The “AUC (D0-D112)” value ([7]; feces, oral 36.8 mg.kg^−1) was 41,301 d* μg.kg-^1 dry weight, the “AUC(0-infini)” value ([7]; feces, oral 36.8 mg.kg^−1) was 41,354 d* μg.kg-^1 dry weight and the Last detection day ([7]; feces, oral 36.8 mg.kg^−1) was 42 days. For the same compound, the tmax ([7]; feces, oral 36.8 mg.kg^−1, rough estimate) was 170 h, the Efficacy period (dog and cat fleas; dogs and cats) was 12 week and the “Duration of insecticidal effect on dog and cat fleas” value (dog and cat fleas; reference not given) was 12 weeks. The MRT [8, 10] was 190 ± 24 h, the t1/2 [8, 10] was 288 ± 24 h and the Cmax ([8]; feces, Lion n = 3, mean ± SD, Bravecto tablets oral with food, 16.0–24.1 mg.kg^−1, rough estimate) was 44,880 ± 28,616 μg.kg-^1 dry weight. The “AUC (D0-D112)” value [8, 11] was 232,796±95,614 d* μg.kg-^1 dry weight, the “AUC(0-infini)” value [8, 11] was 234,203±95,339 d* μg.kg-^1 dry weight and the Last detection day ([8]; feces, Lion n = 3, oral 16.0–24.1 mg.kg^−1) was 89 days. It also gave a tmax ([8]; feces, Lion n = 3, oral 16.0–24.1 mg.kg^−1, rough estimate) of 24 h.
